In patent US20050075375A1 (priority 2003, published 2005):

System: monocistronic NK5.1 HCV replicon in Huh7 cells
Assay: HCV replicon assay, monocistronic replicon cell line
Type: cell-based, hepatitis C virus
Conditions: Hepatitis C virus, Huh-7, 72 h; table T3 (compounds 471-640); monocistronic replicon in Huh7 cells, 3 days incubation, HCV RNA/GAPDH RNA by TaqMan RT-PCR; read-out: Mono EC50 Median
Summary of the method: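 EC50 derives from the HCV RNA/GAPDH RNA ratio by one-step TaqMan RT-PCR, relative to DMSO-only wells. Compounds (six half-log concentrations, 0.6% DMSO) were incubated 3 days at 37 °C with NK5.1 monocistronic replicon Huh7 cells plated a day earlier.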

Row | Compound | EC50
1 | COc1cccc(-c2nc(-c3ccc(C(F)(F)F)cn3)n[nH]2)c1O [Compound 519, 6-Methoxy-2-[5-(5-trifluoromethyl-pyridin-2-yl)-2H-[1,2,4]triazol-3-yl]-phenol] | > 19 µM
2 | O=[N+]([O-])c1cccc(-c2nc(-c3ccc(C(F)(F)F)cn3)n[nH]2)c1 [Compound 520, 2-[5-(3-Nitro-phenyl)-1H-[1,2,4]triazol-3-yl]-5-trifluoromethyl-pyridine] | > 19 µM
3 | CCN(CC)c1ccc(-c2nc(-c3ccc(C(F)(F)F)cn3)n[nH]2)c(O)c1 [Compound 521, 5-Diethylamino-2-[5-(5-trifluoromethyl-pyridin-2-yl)-2H-[1,2,4]triazol-3-yl]-phenol] | > 19 µM
4 | Oc1ccc(O)c(-c2nc(-c3ccc(C(F)(F)F)cn3)n[nH]2)c1 [Compound 522, 4-Hydroxy-2-[5-(5-trifluoromethyl-pyridin-2-yl)-2H-[1,2,4]triazol-3-yl]-phenol] | > 19 µM
5 | COc1cccc(-c2nc(-c3ccc(C(F)(F)F)cn3)n[nH]2)c1 [Compound 523, 2-[5-(3-Methoxy-phenyl)-1H-[1,2,4]triazol-3-yl]-5-trifluoromethyl-pyridine] | > 19 µM
6 | COc1ccc(F)c(-c2nc(-c3ccc(C(F)(F)F)cn3)n[nH]2)c1 [Compound 524, 2-[5-(2-Fluoro-5-methoxy-phenyl)-1H-[1,2,4]triazol-3-yl]-5-trifluoromethyl-pyridine] | > 19 µM
7 | Oc1ccc2ccccc2c1-c1nc(-c2ccc(C(F)(F)F)cn2)n[nH]1 [Compound 525, 1-[5-(5-trifluoromethyl-pyridin-2-yl)-2H-[1,2,4]triazol-3-yl]-naphthalen-2-ol] | > 19 µM
8 | FC(F)(F)c1ccc(-c2n[nH]c(-c3cccc(Br)c3)n2)nc1 [Compound 526, 2-[5-(3-Bromo-phenyl)-1H-[1,2,4]triazol-3-yl]-5-trifluoromethyl-pyridine] | > 19 µM
9 | FC(F)(F)c1ccc(-c2n[nH]c(-c3c(Cl)cccc3Cl)n2)nc1 [Compound 527, 2-[5-(2,6-Dichloro-phenyl)-1H-[1,2,4]triazol-3-yl]-5-trifluoromethyl-pyridine] | > 19 µM
10 | Fc1cc(Br)ccc1-c1nc(-c2ccc(C(F)(F)F)cn2)n[nH]1 [Compound 528, 2-[5-(4-Bromo-2-fluoro-phenyl)-1H-[1,2,4]triazol-3-yl]-5-trifluoromethyl-pyridine] | > 19 µM
11 | COc1ccc(Br)cc1-c1nc(-c2ccc(C(F)(F)F)cn2)n[nH]1 [Compound 529, 2-[5-(5-Bromo-2-methoxy-phenyl)-1H-[1,2,4]triazol-3-yl]-5-trifluoromethyl-pyridine] | > 19 µM
12 | FC(F)(F)c1cccnc1-c1n[nH]c(-c2cccc3ccccc23)n1 [Compound 530, 2-(5-Naphthalen-1-yl-1H-[1,2,4]triazol-3-yl)-3-trifluoromethyl-pyridine] | > 19 µM
13 | CC(C)(C)c1ccc(O)c(-c2nc(-c3ncccc3C(F)(F)F)n[nH]2)c1 [Compound 531, 4-tert-Butyl-2-[5-(3-trifluoromethyl-pyridin-2-yl)-2H-[1,2,4]triazol-3-yl]-phenol] | > 19 µM
14 | O=[N+]([O-])c1ccc(O)c(-c2nc(-c3ncccc3C(F)(F)F)n[nH]2)c1 [Compound 532, 4-Nitro-2-[5-(3-trifluoromethyl-pyridin-2-yl)-2H-[1,2,4]triazol-3-yl]-phenol] | > 19 µM
15 | Oc1ccc(F)cc1-c1nc(-c2ncccc2C(F)(F)F)n[nH]1 [Compound 533, 4-Fluoro-2-[5-(3-trifluoromethyl-pyridin-2-yl)-2H-[1,2,4]triazol-3-yl]-phenol] | > 19 µM
16 | COc1ccc(O)c(-c2nc(-c3ncccc3C(F)(F)F)n[nH]2)c1 [Compound 534, 4-Methoxy-2-[5-(3-trifluoromethyl-pyridin-2-yl)-2H-[1,2,4]triazol-3-yl]-phenol] | 2.3 µM
17 | Oc1ccc(Cl)cc1-c1nc(-c2ncccc2C(F)(F)F)n[nH]1 [Compound 535, 4-Chloro-2-[5-(3-trifluoromethyl-pyridin-2-yl)-2H-[1,2,4]triazol-3-yl]-phenol] | 4.1 µM
18 | CCOc1cccc(-c2nc(-c3ncccc3C(F)(F)F)n[nH]2)c1O [Compound 536, 6-Ethoxy-2-[5-(3-trifluoromethyl-pyridin-2-yl)-2H-[1,2,4]triazol-3-yl]-phenol] | > 19 µM
19 | Oc1cc(OCc2ccccc2)ccc1-c1nc(-c2ncccc2C(F)(F)F)n[nH]1 [Compound 537, 5-Benzyloxy-2-[5-(3-trifluoromethyl-pyridin-2-yl)-2H-[1,2,4]triazol-3-yl]-phenol] | > 19 µM
20 | Fc1cc(-c2nc(-c3ncccc3C(F)(F)F)n[nH]2)ccc1-c1ccccc1 [Compound 538, 2-[5-(2-Fluoro-biphenyl-4-yl)-1H-[1,2,4]triazol-3-yl]-3-trifluoromethyl-pyridine] | > 19 µM
21 | Oc1ccc(Br)cc1-c1nc(-c2ncccc2C(F)(F)F)n[nH]1 [Compound 539, 4-Bromo-2-[5-(3-trifluoromethyl-pyridin-2-yl)-2H-[1,2,4]triazol-3-yl]-phenol] | 0.35 µM

Row | Compound | EC50
22 | Cc1ccc(O)c(-c2nc(-c3ncccc3C(F)(F)F)n[nH]2)c1 [Compound 540, 4-Methyl-2-[5-(3-trifluoromethyl-pyridin-2-yl)-2H-[1,2,4]triazol-3-yl]-phenol] | > 19 µM
23 | COc1ccc(-c2nc(-c3ncccc3C(F)(F)F)n[nH]2)c(O)c1 [Compound 541, 5-Methoxy-2-[5-(3-trifluoromethyl-pyridin-2-yl)-2H-[1,2,4]triazol-3-yl]-phenol] | > 19 µM
24 | Oc1ccccc1-c1nc(-c2ncccc2C(F)(F)F)n[nH]1 [Compound 542, 2-[5-(3-trifluoromethyl-pyridin-2-yl)-2H-[1,2,4]triazol-3-yl]-phenol] | > 19 µM
25 | COc1cccc(-c2nc(-c3ncccc3C(F)(F)F)n[nH]2)c1O [Compound 543, 6-Methoxy-2-[5-(3-trifluoromethyl-pyridin-2-yl)-2H-[1,2,4]triazol-3-yl]-phenol] | > 19 µM
26 | O=[N+]([O-])c1cccc(-c2nc(-c3ncccc3C(F)(F)F)n[nH]2)c1 [Compound 544, 2-[5-(3-Nitro-phenyl)-1H-[1,2,4]triazol-3-yl]-3-trifluoromethyl-pyridine] | > 19 µM
27 | CCN(CC)c1ccc(-c2nc(-c3ncccc3C(F)(F)F)n[nH]2)c(O)c1 [Compound 545, 5-Diethylamino-2-[5-(3-trifluoromethyl-pyridin-2-yl)-2H-[1,2,4]triazol-3-yl]-phenol] | > 19 µM
28 | Oc1ccc(O)c(-c2nc(-c3ncccc3C(F)(F)F)n[nH]2)c1 [Compound 546, 4-Hydroxy-2-[5-(3-trifluoromethyl-pyridin-2-yl)-2H-[1,2,4]triazol-3-yl]-phenol] | > 19 µM
29 | COc1cccc(-c2nc(-c3ncccc3C(F)(F)F)n[nH]2)c1 [Compound 547, 2-[5-(3-Methoxy-phenyl)-1H-[1,2,4]triazol-3-yl]-3-trifluoromethyl-pyridine] | > 19 µM
30 | CC(C)c1ccc(-c2nc(-c3ncccc3C(F)(F)F)n[nH]2)cc1 [Compound 548, 2-[5-(4-Isopropyl-phenyl)-1H-[1,2,4]triazol-3-yl]-3-trifluoromethyl-pyridine] | > 19 µM
31 | Oc1ccc2ccccc2c1-c1nc(-c2ncccc2C(F)(F)F)n[nH]1 [Compound 549, 1-[5-(3-trifluoromethyl-pyridin-2-yl)-2H-[1,2,4]triazol-3-yl]-naphthalen-2-ol] | > 19 µM
32 | FC(F)(F)c1cccnc1-c1n[nH]c(-c2cccc(Br)c2)n1 [Compound 550, 2-[5-(3-Bromo-phenyl)-1H-[1,2,4]triazol-3-yl]-3-trifluoromethyl-pyridine] | > 19 µM
33 | FC(F)(F)c1cccnc1-c1n[nH]c(-c2c(Cl)cccc2Cl)n1 [Compound 551, 2-[5-(2,6-Dichloro-phenyl)-1H-[1,2,4]triazol-3-yl]-3-trifluoromethyl-pyridine] | > 19 µM
34 | Fc1cc(Br)ccc1-c1nc(-c2ncccc2C(F)(F)F)n[nH]1 [Compound 552, 2-[5-(4-Bromo-2-fluoro-phenyl)-1H-[1,2,4]triazol-3-yl]-3-trifluoromethyl-pyridine] | > 19 µM
35 | COc1ccc(Br)cc1-c1nc(-c2ncccc2C(F)(F)F)n[nH]1 [Compound 553, 2-[5-(5-Bromo-2-methoxy-phenyl)-1H-[1,2,4]triazol-3-yl]-3-trifluoromethyl-pyridine] | > 19 µM
36 | COc1ccc(O)c(-c2nc(-c3ncccc3[N+](=O)[O-])n[nH]2)c1 [Compound 554, 4-Methoxy-2-[5-(3-nitro-pyridin-2-yl)-2H-[1,2,4]triazol-3-yl]-phenol] | > 19 µM
37 | Nc1cccnc1-c1n[nH]c(-c2cc(Br)ccc2O)n1 [Compound 555, 2-[5-(3-amino-pyridin-2-yl)-2H-[1,2,4]triazol-3-yl]-4-bromo-phenol] | > 3.2 µM
38 | O=[N+]([O-])c1cccnc1-c1n[nH]c(-c2cc(Br)ccc2O)n1 [Compound 556, 4-Bromo-2-[5-(3-nitro-pyridin-2-yl)-2H-[1,2,4]triazol-3-yl]-phenol] | > 3.2 µM
39 | Nc1cccnc1-c1n[nH]c(-c2c(O)ccc3ccccc23)n1 [Compound 557, 1-[5-(3-amino-pyridin-2-yl)-2H-[1,2,4]triazol-3-yl]-naphthalen-2-ol] | > 3.2 µM
40 | O=[N+]([O-])c1cccnc1-c1n[nH]c(-c2c(O)ccc3ccccc23)n1 [Compound 558, 1-[5-(3-Nitro-pyridin-2-yl)-2H-[1,2,4]triazol-3-yl]-naphthalen-2-ol] | > 3.2 µM
41 | CC(C)(C)c1ccc(O)c(-c2nc(-c3ncccn3)n[nH]2)c1 [Compound 559, 4-tert-Butyl-2-(5-pyrimidin-2-yl-2H-[1,2,4]triazol-3-yl)-phenol] | > 32 µM
42 | O=[N+]([O-])c1ccc(O)c(-c2nc(-c3ncccn3)n[nH]2)c1 [Compound 560, 4-Nitro-2-(5-pyrimidin-2-yl-2H-[1,2,4]triazol-3-yl)-phenol] | > 32 µM
